Test results as given in publication PMC8877822, “Interrogation of the Structure–Activity Relationship of a Lipophilic Nitroaromatic Prodrug Series Designed for Cancer Gene Therapy Applications” (Pharmaceuticals, 2022).

Columns and labels:
[1] = tested on: 100% HCT116 AKR1C3 MCLs; test: 3D multicellular layer (MCL) assay, 100% HCT116 AKR1C3; type: cell-based, human; settings: 10 µM prodrug, five hours
Method: Similar to the 3D NfsA_Ec screen, increased lipophilicity also tracked with increased LCK in 100% AKR1C3-expressing MCLs (R = 0.78, R^2 = 0.61). […] These three lead compounds were taken forward into in vivo studies.
(§1) Multicellular layers (MCLs) were grown, and bystander effect assays were performed as previously reported.
(§2) Figure 4 Lipophilic structure–activity relationship for AKR1C3 in three dimensions. (A) Plating efficiency in 100% HCT116 WT and 100% HCT116 AKR1C3 MCLs exposed to 10 µM prodrug for five hours before dissociation and plating to determine clonogenic survival. (B) Correlation between Log cell kill and LogD7.4. R = 0.78, R^2 = 0.61. Log cell kill = Log CS (control)–Log CS (treated), where CS is the number of clonogenic survivors per MCL.

[2] = LogD7.4 by low-volume octanol/PBS shake-flask method; type: physicochemical; settings: n-octanol/PBS; octanol-water partition coefficient, shake-flask method at pH 7.4
Method: Distribution ratios (LogD7.4) were determined by a low-volume octanol/PBS shake-flask method. Briefly, saturated solutions of octanol and PBS were prepared by mixing equal volumes of n-octanol and PBS (pH 7.4) before being left for three days. The octanol and PBS phases were then carefully separated and left to stand for at least 24 h. Stock solutions (0.1–0.5 mM) of each compound were prepared in octanol saturated with PBS. The stock solutions were diluted with octanol saturated with PBS containing and inter-assay control (acridone) to a final compound concentration of 50 μM. Aliquots (450 μL) were then taken in triplicate, and 450 μL of PBS saturated with octanol was added into amber tubes. The tubes were then sealed in parafilm and rotated for 90 min at 30 rpm to equilibrate. After centrifugation (15,000× g, 5 min, 20°C) the octanol and PBS phases were separated into different tubes and the octanol phase diluted with methanol (1:5 v/v). Both phases were analyzed by HPLC (diode-array detector at 364 ± 10 nm) by injecting 50 μL of the PBS phase and 15 μL of the diluted octanol phase. The results were then expressed as the log ratio of the peak areas obtained from the octanol and PBS phases corrected for dilution and injection volume.

[3] = tested on: H1299 WT cells; test: Anti-proliferative IC50 assay, H1299 WT cells; type: cell-based; settings: Homo sapiens, NCI-H1299, 4 hour drug exposure, regrowth for five days
Method: (§3) The anti-proliferative IC50 was determined as the concentration of prodrug required for 50% inhibition of cell growth, following drug exposure for four hours, then five days regrowth in the absence of drug. Assays were performed under oxic or anoxic conditions as described previously, the latter by using a 5% H2/palladium catalyst scrubbed Bactron anaerobic chamber (Sheldon Manufacturing, Cornelius, OR, USA) to achieve severe anoxia (<10 ppm O2 gas phase) during prodrug exposure.
(§4) Supplementary Table S2. In vitro anti-proliferative activity of the three lead prodrug compounds in H1299 cells expressing E. coli NfsA. IC50 values were determined as the concentration of drug required to inhibit cell growth by 50% of untreated controls following 4 hour drug exposure, with washing and regrowth for five days.
(§5) Compound WT NfsA_Ec Ratio

[4] = tested on: H1299 cells expressing E. coli NfsA; test: Anti-proliferative IC50 assay, H1299 cells expressing E. coli NfsA; type: cell-based; settings: for IC50: Escherichia coli, NCI-H1299, H1299 NfsA_Ec, 4 hour drug exposure, regrowth for five days; for WT:NfsA_Ec IC50 ratio: H1299 WT vs H1299 NfsA_Ec
Method: as §3, §4, §5

[5] = tested on: 97% HCT116 WT/3% HCT116 NfsA_Ec MCLs; test: 3D multicellular layer (MCL) bystander assay, 97% HCT116 WT/3% HCT116 NfsA_Ec; type: cell-based; settings: 10 µM prodrug, five hours
Excerpt: We then examined our compounds in a high cell density, 3D multi-cellular layer (MCL) assay in order to determine tissue penetration capacity of the active metabolite(s) and the potential for an efficient bystander effect. Mixed MCLs consisting of a small percentage HCT116 NfsA_Ec cells (3%) in the presence of HCT116 WT cells (97%) were used as a robust screen for efficient bystander cell kill. Here, active cytotoxic metabolites can diffuse out of the minority NfsA_Ec ‘prodrug-activating’ cell population into the WT ‘target’ population, causing death of cells that would not normally be sensitive to that concentration of prodrug.
as §1
as §2, with “Figure 3” for “Figure 4”, “for NfsA_Ec” for “for AKR1C3”, “and 97%” for “and 100%”, “HCT116 WT/3% HCT116 NfsA_Ec” for “HCT116 AKR1C3”, “= 0.63,” for “= 0.78,”, “= 0.40.” for “= 0.61.”

[6] = tested on: HCT116 cells expressing E. coli NfsA nitroreductase (NfsA_Ec); test: Low cell density anti-proliferative (IC50) assay, HCT116 NfsA_Ec vs HCT116 WT; type: cell-based; settings: aerobic, five days regrowth; for IC50: Escherichia coli, HCT-116, four hour drug exposure
Method: (§6) Next, we evaluated the compounds for activity with the major nitroreductase from E. coli, NfsA (NfsA_Ec), or the human aldo-keto reductase AKR1C3, using a low cell density anti-proliferative (IC50) assay (Figure 2). The sensitivity of HCT116 wild-type (WT) cells and HCT116 cells over-expressing either NfsA_Ec or AKR1C3 was examined under aerobic conditions.
as §3
Figure 2 In vitro anti-proliferative activity of the novel lipophilic analogue series in HCT116 cells expressing AKR1C3 and E. coli NfsA (NfsA_Ec). IC50 values were determined as the concentration of drug required to inhibit cell growth by 50% of untreated controls following four hour drug exposure, with washing and regrowth for five days. Respective IC50 ratios (WT:AKR1C3 or WT:NfsA_Ec) are indicated above the bars for each compound. TEXT PRINTED IN THE PICTURE: PR-104A: HCT116 AKR1C3: 84; HCT116 NfsA_Ec: 2680 | 1: HCT116 AKR1C3: 1.8; HCT116 NfsA_Ec: 242 | 2: HCT116 AKR1C3: 1.6; HCT116 NfsA_Ec: 1431 | 3: HCT116 AKR1C3: 2.3; HCT116 NfsA_Ec: 913 | 4: HCT116 AKR1C3: 3.3; HCT116 NfsA_Ec: 594 | 5: HCT116 AKR1C3: 3.3; HCT116 NfsA_Ec: 152 | 6: HCT116 AKR1C3: 2.4; HCT116 NfsA_Ec: 741 | 7: HCT116 AKR1C3: 3.2; HCT116 NfsA_Ec: 174 | 8: HCT116 AKR1C3: 4.9; HCT116 NfsA_Ec: 81 | 9: HCT116 AKR1C3: 3.4; HCT116 NfsA_Ec: 147 DOUBTS OF THE COPYIST ABOUT THIS PICTURE: All values: the picture prints no measure or unit for the grey numbers above the blue and red bars. […] Each is given only with the cell line of the bar it stands over, as named in the picture's key.

[7] = tested on: HCT116 cells over-expressing AKR1C3; test: Low cell density anti-proliferative (IC50) assay, HCT116 AKR1C3 vs HCT116 WT; type: cell-based, human; settings: HCT116 WT vs HCT116 AKR1C3, aerobic, four hour exposure, five days regrowth
Method: as §6, §3
Figure 2 In vitro anti-proliferative activity of the novel lipophilic analogue series in HCT116 cells expressing AKR1C3 and E. coli NfsA (NfsA_Ec). IC50 values were determined as the concentration of drug required to inhibit cell growth by 50% of untreated controls following four hour drug exposure, with washing and regrowth for five days. Respective IC50 ratios (WT:AKR1C3 or WT:NfsA_Ec) are indicated above the bars for each compound. […]

[8] = design: method as in PMID 34959631; settings: mice, PR-104 at 388 µmol/kg (human equivalent dose); cited from earlier work
[9] = biological target: T1, purified His6-tagged NfsA_Ec (Escherichia coli, UniProt P17117); design: method as in earlier work; settings: apparent, 250 µM NADPH; cited from earlier work
T1 construct: His6; made in house
T1 sequence (P17117 1-240): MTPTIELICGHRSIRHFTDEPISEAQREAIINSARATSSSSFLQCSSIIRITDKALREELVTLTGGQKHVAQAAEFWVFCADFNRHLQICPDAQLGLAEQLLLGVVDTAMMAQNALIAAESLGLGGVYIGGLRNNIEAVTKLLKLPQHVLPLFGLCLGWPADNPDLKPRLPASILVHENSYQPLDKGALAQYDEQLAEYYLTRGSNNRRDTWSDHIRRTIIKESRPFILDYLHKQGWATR

Row | Structure (SMILES) | Log cell kill (LCK) [1] | logD at 90 min [2] | IC50 [3] [nM] | IC50 [4] [nM] | WT:NfsA_Ec IC50 ratio [4] [fold] | Log cell kill (LCK) [5] | IC50 [6] [nM] | WT:AKR1C3 IC50 ratio [7] [fold] | Plasma AUCfree of PR-104A [8] [µM-h] | Km [9] [µM] | kcat [9] [s⁻¹] | WT:NfsA_Ec IC50 ratio ([6]; HCT116 WT vs HCT116 NfsA_Ec, four hour exposure) [fold] | melting point [°C]
1 | CS(=O)(=O)c1cc([N+](=O)[O-])c(C(=O)NCCO)cc1N(CCBr)CCBr [Compound 1, 5-(Bis(2-bromoethyl)amino)-N-(2-hydroxyethyl)-4-(methylsulfonyl)-2-nitrobenzamide] | ≤ 0.11 | 1 | 166000 ± 26000 | 1180 ± 40 | 141 | – | – | – | – | – | – | – | –
2 | CCCN(CCO)C(=O)c1cc(N(CCBr)CCBr)c(S(C)(=O)=O)cc1[N+](=O)[O-] [Compound 4] | – | 2.1 | – | – | – | 3.06 | 170 | – | – | – | – | – | –
3 | CS(=O)(=O)OCCN(CCBr)c1c(C(=O)NCCO)cc([N+](=O)[O-])cc1[N+](=O)[O-] [PR-104A, reference compound] | – | – | 131000 ± 9900 | 46 ± 3 | 2848 | – | 30 | 84 | 38 | 100 ± 11 | 12 ± 1.4 | 2680 | –
4 | CCCS(=O)(=O)c1cc([N+](=O)[O-])c(C(=O)N(C)CCO)cc1N(CCBr)CCBr [Compound 9] | – | 2.1 | – | – | – | 1.6 | 1000 | – | – | – | – | – | –
5 | CN(CCO)C(=O)c1cc(N(CCBr)CCBr)c(S(C)(=O)=O)cc1[N+](=O)[O-] [Compound 2, 5-(Bis(2-bromoethyl)amino)-N-(2-hydroxyethyl)-N-methyl-4-(methylsulfonyl)-2-nitrobenzamide] | ≤ 0.11 | 1.2 | 175000 ± 3500 | 170 ± 30 | 1029 | – | – | – | – | – | – | – | 138 to 140
